Targets include RPS6KB1 (p70S6K) (Homo sapiens, UniProt P23443); MAPKAPK3 (Homo sapiens, UniProt Q16644); SRC (Homo sapiens, UniProt P12931); RPS6KA4 (MSK2) (Homo sapiens, UniProt O75676); ROCK2 (Homo sapiens, UniProt O75116); FRAP1 (mTOR) (Homo sapiens, UniProt P42345); TEK (Tie2) (Homo sapiens, UniProt Q02763); LCK (Homo sapiens, UniProt P06239); PRKCB2 (PKC beta II) (Homo sapiens, UniProt P05771); MKNK1 (MNK1) (Homo sapiens, UniProt Q9BUB5).

Experiment in all cases: SelectScreen Z'LYTE kinase profiling
Common to all, as to assay type: biochemical
Common to all, as to conditions: ATP at apparent KM

A further assay has as its target T1, EPHB4 (Homo sapiens, UniProt P54760).
T1 sequence (P54760 16-987): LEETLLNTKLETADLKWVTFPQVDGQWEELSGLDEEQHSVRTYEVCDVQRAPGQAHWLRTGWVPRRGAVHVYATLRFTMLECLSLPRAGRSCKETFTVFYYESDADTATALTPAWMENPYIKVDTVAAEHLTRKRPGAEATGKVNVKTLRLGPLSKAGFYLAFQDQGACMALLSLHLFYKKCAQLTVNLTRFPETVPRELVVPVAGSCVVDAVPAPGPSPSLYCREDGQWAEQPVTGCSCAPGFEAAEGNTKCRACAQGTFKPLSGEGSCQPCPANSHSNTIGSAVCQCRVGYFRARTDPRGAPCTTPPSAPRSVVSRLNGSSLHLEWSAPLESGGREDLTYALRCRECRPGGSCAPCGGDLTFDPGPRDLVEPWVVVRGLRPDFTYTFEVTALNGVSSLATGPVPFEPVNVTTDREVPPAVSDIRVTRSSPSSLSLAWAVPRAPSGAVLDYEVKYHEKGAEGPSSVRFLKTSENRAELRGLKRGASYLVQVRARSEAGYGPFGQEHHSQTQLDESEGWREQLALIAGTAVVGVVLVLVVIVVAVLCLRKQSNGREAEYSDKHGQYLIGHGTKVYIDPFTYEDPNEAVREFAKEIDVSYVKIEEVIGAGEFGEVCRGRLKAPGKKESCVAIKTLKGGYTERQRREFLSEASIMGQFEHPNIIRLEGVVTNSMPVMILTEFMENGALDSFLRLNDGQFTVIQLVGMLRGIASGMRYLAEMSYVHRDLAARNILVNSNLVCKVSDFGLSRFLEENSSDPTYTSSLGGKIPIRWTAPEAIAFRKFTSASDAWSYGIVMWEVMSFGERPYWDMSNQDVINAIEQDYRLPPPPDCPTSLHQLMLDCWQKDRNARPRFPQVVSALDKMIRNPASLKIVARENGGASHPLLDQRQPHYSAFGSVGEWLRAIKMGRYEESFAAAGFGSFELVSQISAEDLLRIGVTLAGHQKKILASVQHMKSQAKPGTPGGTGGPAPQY

The target of a further assay is T2, ACVR1B (ALK4) (Homo sapiens, UniProt P36896).
T2 sequence (P36896 24-505): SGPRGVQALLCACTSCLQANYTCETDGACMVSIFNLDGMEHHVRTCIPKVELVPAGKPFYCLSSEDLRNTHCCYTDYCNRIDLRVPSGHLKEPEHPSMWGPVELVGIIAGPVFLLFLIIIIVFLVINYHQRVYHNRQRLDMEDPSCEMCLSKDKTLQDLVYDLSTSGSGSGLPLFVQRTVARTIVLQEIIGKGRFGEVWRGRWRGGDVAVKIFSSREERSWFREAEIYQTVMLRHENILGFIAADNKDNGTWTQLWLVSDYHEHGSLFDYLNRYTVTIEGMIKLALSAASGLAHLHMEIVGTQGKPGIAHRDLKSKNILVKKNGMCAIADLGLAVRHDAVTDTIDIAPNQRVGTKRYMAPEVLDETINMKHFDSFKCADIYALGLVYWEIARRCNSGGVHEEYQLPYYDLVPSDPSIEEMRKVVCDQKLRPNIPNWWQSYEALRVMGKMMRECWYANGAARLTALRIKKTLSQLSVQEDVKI

Another assay deals with T3, SGK2 (Homo sapiens, UniProt Q9HBY8).
T3 sequence (Q9HBY8 1-367): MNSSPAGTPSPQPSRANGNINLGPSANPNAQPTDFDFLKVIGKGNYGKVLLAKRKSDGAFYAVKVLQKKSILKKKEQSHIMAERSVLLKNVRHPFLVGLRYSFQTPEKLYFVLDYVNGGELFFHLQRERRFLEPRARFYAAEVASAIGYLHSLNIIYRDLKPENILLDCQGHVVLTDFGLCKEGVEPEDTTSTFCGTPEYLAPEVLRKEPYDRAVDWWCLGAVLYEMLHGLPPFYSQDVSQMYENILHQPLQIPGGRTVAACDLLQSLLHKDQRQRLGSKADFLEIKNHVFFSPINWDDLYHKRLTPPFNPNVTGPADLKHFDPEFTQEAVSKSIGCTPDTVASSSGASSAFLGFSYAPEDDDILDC

Molecules are shown by their SMILES.

Sequence of MAPKAPK3 (Q16644 whole entry): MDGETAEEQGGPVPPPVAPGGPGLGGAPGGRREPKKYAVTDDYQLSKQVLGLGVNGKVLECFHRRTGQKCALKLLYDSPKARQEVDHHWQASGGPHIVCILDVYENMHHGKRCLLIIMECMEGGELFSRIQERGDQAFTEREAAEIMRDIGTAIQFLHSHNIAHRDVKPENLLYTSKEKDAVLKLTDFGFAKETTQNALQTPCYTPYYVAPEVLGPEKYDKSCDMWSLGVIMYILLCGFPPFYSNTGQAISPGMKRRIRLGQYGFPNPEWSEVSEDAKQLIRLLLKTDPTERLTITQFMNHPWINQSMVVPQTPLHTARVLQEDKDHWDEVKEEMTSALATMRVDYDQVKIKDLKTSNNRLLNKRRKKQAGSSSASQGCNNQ
Sequence of PRKCB2 (PKC beta II) (P05771 1-673 isoform P05771-2): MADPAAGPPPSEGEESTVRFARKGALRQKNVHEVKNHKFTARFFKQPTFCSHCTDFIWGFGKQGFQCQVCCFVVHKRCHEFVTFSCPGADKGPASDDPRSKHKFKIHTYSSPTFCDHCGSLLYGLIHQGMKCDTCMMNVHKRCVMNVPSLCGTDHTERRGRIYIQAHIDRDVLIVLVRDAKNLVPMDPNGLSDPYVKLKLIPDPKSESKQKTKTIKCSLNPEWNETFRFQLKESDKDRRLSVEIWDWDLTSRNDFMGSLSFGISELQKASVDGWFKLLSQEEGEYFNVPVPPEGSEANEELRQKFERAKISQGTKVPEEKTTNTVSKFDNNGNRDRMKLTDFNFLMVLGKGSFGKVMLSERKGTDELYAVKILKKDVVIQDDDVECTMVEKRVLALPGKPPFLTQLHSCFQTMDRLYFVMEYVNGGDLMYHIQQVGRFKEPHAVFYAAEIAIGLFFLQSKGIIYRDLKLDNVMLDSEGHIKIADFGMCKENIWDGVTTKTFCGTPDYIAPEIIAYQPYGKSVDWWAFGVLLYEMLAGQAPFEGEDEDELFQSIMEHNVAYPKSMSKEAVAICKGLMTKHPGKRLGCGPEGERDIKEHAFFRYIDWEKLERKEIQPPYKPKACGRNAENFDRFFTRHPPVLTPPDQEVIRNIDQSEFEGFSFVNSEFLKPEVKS
Sequence of RPS6KB1 (p70S6K) (P23443 whole entry): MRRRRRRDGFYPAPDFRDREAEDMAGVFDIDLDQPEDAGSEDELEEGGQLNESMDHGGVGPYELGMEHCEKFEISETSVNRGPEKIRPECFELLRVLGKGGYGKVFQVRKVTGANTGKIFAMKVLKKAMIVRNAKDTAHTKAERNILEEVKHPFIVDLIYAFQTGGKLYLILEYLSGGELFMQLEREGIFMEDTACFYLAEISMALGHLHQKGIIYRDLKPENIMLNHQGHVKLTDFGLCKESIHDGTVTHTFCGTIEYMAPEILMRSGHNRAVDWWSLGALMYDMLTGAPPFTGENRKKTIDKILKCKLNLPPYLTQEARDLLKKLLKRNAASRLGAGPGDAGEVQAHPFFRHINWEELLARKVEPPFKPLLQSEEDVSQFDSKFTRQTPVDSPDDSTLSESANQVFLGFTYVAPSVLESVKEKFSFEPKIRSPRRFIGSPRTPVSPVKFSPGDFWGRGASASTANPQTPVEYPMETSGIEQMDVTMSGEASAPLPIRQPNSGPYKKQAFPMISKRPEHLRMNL
Sequence of TEK (Tie2) (Q02763 23-1124): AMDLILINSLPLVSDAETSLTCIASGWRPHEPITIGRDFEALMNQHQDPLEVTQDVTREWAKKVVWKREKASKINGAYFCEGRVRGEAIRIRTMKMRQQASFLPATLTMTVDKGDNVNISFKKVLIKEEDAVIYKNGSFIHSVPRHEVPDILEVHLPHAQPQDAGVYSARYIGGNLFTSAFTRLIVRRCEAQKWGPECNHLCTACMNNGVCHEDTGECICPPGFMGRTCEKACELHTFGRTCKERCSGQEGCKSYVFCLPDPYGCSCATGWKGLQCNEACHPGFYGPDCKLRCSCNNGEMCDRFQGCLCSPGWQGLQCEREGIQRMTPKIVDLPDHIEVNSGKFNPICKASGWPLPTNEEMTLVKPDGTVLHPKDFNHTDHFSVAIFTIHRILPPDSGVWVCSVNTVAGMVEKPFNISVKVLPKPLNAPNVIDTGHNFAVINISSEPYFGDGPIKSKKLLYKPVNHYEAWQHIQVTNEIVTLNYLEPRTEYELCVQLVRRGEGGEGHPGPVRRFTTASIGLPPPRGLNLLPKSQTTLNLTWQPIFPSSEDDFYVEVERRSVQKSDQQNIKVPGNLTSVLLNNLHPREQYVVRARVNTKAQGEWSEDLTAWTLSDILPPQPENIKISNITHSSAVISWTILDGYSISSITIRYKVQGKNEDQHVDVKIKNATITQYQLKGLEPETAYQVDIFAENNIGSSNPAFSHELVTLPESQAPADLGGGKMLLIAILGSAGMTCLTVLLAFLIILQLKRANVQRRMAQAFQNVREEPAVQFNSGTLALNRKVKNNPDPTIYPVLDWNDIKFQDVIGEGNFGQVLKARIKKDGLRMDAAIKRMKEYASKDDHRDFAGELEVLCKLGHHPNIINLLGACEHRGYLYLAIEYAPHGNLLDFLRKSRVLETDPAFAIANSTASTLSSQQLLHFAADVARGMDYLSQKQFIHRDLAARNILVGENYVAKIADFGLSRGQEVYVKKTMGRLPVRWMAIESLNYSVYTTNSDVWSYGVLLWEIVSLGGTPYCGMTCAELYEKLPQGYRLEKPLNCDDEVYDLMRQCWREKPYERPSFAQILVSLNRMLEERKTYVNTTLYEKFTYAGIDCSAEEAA
Sequence of MKNK1 (MNK1) (Q9BUB5 whole entry): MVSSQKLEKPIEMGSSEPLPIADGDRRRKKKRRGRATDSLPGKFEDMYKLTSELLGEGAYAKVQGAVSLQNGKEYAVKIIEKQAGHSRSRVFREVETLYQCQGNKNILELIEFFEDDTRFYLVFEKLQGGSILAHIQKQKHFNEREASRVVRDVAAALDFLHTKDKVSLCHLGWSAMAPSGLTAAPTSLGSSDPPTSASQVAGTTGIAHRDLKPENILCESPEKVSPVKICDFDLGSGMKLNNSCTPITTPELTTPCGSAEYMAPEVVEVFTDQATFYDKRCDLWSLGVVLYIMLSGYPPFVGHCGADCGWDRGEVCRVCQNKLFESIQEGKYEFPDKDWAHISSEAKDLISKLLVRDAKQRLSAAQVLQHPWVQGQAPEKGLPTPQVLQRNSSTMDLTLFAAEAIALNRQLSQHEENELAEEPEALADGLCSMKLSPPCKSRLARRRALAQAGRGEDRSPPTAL
Sequence of LCK (P06239 whole entry): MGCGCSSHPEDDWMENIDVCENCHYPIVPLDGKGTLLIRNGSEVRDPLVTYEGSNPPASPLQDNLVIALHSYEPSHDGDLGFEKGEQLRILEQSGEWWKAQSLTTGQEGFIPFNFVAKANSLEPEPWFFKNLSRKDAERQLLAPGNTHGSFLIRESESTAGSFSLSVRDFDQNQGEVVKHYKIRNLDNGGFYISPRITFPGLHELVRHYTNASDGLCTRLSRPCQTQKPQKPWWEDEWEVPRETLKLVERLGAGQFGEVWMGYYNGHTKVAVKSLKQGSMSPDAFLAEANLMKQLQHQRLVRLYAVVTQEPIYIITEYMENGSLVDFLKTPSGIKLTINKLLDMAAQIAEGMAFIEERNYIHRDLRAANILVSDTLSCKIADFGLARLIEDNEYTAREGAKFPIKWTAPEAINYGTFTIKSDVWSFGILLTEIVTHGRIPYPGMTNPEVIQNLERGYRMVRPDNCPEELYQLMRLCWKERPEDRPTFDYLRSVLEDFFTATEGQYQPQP
Sequence of SRC (P12931 whole entry): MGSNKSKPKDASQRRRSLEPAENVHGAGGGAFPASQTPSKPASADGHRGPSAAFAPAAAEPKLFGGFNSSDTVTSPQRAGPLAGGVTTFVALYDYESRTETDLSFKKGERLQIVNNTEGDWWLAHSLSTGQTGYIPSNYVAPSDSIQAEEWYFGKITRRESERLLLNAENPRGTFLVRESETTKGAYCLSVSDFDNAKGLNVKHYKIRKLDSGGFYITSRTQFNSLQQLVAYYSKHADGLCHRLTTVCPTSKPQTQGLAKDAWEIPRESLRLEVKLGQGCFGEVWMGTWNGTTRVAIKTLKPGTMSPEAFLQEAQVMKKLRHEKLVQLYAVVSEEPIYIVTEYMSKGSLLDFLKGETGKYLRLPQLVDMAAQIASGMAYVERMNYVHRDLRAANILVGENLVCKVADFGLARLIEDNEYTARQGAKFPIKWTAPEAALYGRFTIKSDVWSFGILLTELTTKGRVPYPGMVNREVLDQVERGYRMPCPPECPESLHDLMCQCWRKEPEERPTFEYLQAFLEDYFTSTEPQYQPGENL
Sequence of RPS6KA4 (MSK2) (O75676 whole entry): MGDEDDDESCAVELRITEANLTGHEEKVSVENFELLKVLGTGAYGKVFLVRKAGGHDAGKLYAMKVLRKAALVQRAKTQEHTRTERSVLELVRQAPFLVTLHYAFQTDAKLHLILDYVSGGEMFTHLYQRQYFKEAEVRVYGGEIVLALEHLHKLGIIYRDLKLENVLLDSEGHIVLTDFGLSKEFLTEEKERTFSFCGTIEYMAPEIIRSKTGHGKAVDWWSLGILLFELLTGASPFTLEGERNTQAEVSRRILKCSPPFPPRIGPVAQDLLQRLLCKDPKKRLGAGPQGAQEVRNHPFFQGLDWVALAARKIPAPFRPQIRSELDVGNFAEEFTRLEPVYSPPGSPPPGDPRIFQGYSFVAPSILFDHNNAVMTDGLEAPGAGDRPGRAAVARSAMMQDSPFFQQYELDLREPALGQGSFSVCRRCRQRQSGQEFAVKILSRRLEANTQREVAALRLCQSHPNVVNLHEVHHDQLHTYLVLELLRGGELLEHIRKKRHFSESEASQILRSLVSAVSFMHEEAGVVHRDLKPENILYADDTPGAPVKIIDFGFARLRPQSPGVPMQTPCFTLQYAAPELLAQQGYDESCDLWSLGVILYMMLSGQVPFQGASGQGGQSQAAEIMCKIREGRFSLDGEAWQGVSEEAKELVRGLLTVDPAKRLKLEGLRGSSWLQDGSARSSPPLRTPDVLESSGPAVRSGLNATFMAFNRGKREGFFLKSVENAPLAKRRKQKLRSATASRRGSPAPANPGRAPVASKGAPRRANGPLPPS
Description for ACVR1B (ALK4): (§1) protein kinases at a compound concentration of 1 µM. Measurements were performed in duplicates
(§2) and at the particular apparent ATP KM of each individual kinase employing the activity based Z’LYTE®
(§3) kinase assay of the SelectScreen® Kinase Profiling Services (ThermoFisher Scientific).
(§4) kinases at a compound concentration of 1 µM. Measurements were performed in duplicates and at
(§5) the particular apparent ATP KM of each individual kinase employing the activity based Z’LYTE® kinase
(§6) assay of the SelectScreen® Kinase Profiling Services (ThermoFisher Scientific).
Description for EPHB4: as §1, §2, §3, §4, §5, §6
Description for FRAP1 (mTOR): as §1, §2, §3, §4, §5, §6
Description for LCK: as §1, §2, §3, §4, §5, §6
Description for MAPKAPK3: as §1, §2, §3, §4, §5, §6
Description for MKNK1 (MNK1): as §1, §2, §3, §4, §5, §6
Description for PRKCB2 (PKC beta II): as §1, §2, §3, §4, §5, §6
Description for ROCK2: as §1, §2, §3, §4, §5, §6
Description for RPS6KA4 (MSK2): as §1, §2, §3, §4, §5, §6
Description for SGK2: as §1, §2, §3, §4, §5, §6
Description for SRC: as §1, §2, §3, §4, §5, §6
Description for TEK (Tie2): as §1, §2, §3, §4, §5, §6

Take `C=CC(=O)Nc1ccc2c(c1)n(C1CCN(Cc3ccc(-c4nc5cc[nH]c(=O)c5cc4-c4ccccc4)cc3)CC1)c(=O)n2C` [24b]: the inhibition at 1 µM stood at 32% at RPS6KB1 (p70S6K); 23% at MAPKAPK3; 19% at SRC; 9% at RPS6KA4 (MSK2); 9% on ROCK2; 8% at FRAP1 (mTOR). Further, the inhibition at 1 µM at EPHB4 was 4%; on TEK (Tie2) it was 2%; at ACVR1B (ALK4) it was -1%; on SGK2 it was -1%; at LCK it was -3%; at PRKCB2 (PKC beta II), -5%. Also, the inhibition at 1 µM on MKNK1 (MNK1) was -22%.
In the case of `C=CC(=O)Nc1cccc(C(=O)NC2CCN(Cc3ccc(-c4nc5cc[nH]c(=O)c5cc4-c4ccccc4)cc3)CC2)c1` [30b], the inhibition at 1 µM on RPS6KB1 (p70S6K) amounted to 8%; on MAPKAPK3, 23%; at SRC it was 17%; at RPS6KA4 (MSK2) it was 11%; at ROCK2 it was 21%; on FRAP1 (mTOR) it was 1%. Moreover, the inhibition at 1 µM was 1% on EPHB4; 6% at TEK (Tie2); 0% on ACVR1B (ALK4); 3% on SGK2; 8% at LCK; -1% at PRKCB2 (PKC beta II). Also, the inhibition at 1 µM at MKNK1 (MNK1) was determined as 10%.
Turning to `C=CC(=O)Nc1cc(NC(=O)NC2CCN(Cc3ccc(-c4nc5cc[nH]c(=O)c5cc4-c4ccccc4)cc3)CC2)ccc1Cl` [compound 27], the inhibition at 1 µM on RPS6KB1 (p70S6K) was 29%; at MAPKAPK3, 23%; on SRC, 36%; on RPS6KA4 (MSK2) it was 16%; at ROCK2, 31%; at FRAP1 (mTOR), -2%. Besides, the inhibition at 1 µM at EPHB4 was 4%; at TEK (Tie2), 5%; on ACVR1B (ALK4), -8%; on SGK2, 4%; on LCK it was 4%; at PRKCB2 (PKC beta II), -12%. For the same molecule, the inhibition at 1 µM on MKNK1 (MNK1) amounted to 29%.

Values taken from paper PMC6430017, “Structural and chemical insights into the covalent-allosteric inhibition of the protein kinase Akt” (Chemical Science, 2019).
